According to ChEMBL document CHEMBL1201862, “PubChem BioAssay data set” (2004):
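Grown in 96-well plates, cells were treated for 48 hours with each compound at five concentrations. Insufficient inhibition: endpoint recorded as highest concentration tested. The concentration for 50% growth inhibition is given as GI50.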 Calls of active or inactive are those of the source. No stated cut-off is given here; in the data, active = GI50 up to about 1.1 µM and inactive = higher. *1 amine or outer side, *2 acyl side, *3 side chain or, on linkers, in order; H or OH if unused. Where a SMILES comes first, the peptide text is derived from it. Bridges are numbered along the chain shown (N, C = ends). [ ]: non-standard residue; d: D form. The star is where a group is joined. X56 = CC(C)C(C)C(C(=O)[*:2])N(C)[*:1]; Picolinoyl(3-OH) = O=C(c1ncccc1O)*; NMePhg = CN[CH](C(=O)O)c1ccccc1; Hyp = O=C(O)[CH]1C[CH](O)CN1; Sar = CNCC(=O)O

Key:
Assay in all cases: NCI-60 cell line screen, 48 h
DLD-1 = test system: DLD-1
MCF7 = test system: MCF7
TK-10 = test system: TK-10
COLO 205 = test system: COLO 205
LXFL 529 = test system: LXFL 529
UO-31 = test system: UO-31
SR = test system: SR
NCI/ADR-RES = test system: NCI/ADR-RES
MDA-MB-231 = test system: MDA-MB-231
OVCAR-5 = test system: OVCAR-5
HOP-18 = test system: HOP-18
SN12C = test system: SN12C
HOP-62 = test system: HOP-62
U-251 = test system: U-251
UACC-62 = test system: UACC-62
SF-539 = test system: SF-539
SK-MEL-5 = test system: SK-MEL-5
M14 = test system: M14
SNB-78 = test system: SNB-78
ACHN = test system: ACHN

SMILES | GI50 (DLD-1) | GI50 (MCF7) | GI50 (TK-10) | GI50 (COLO 205) | GI50 (LXFL 529) | GI50 (UO-31) | GI50 (SR) | GI50 (NCI/ADR-RES) | GI50 (MDA-MB-231) | GI50 (OVCAR-5) | GI50 (HOP-18) | GI50 (SN12C) | GI50 (HOP-62) | GI50 (U-251) | GI50 (UACC-62) | GI50 (SF-539) | GI50 (SK-MEL-5) | GI50 (M14) | GI50 (SNB-78) | GI50 (ACHN)
CO[C@@]12[C@H](COC(N)=O)C3=C(C(=O)C(C)=C(N)C3=O)N1C[C@@H]1N[C@@H]12 [MITOMYCIN] | 2.8 µM (inactive) | 0.148 µM (active) | 4.86 µM (inactive) | 1.02 µM (active) | 2.55 µM (inactive) | 1.87 µM (inactive) | 0.122 µM (active) | 4.74 µM (inactive) | 5.71 µM (inactive) | 1.36 µM (inactive) | 1.1 µM (active) | – | – | – | – | – | – | – | – | –
COc1ccc2[nH]cc(/C=C(/C)c3ccncc3)c2c1 | 4.52 µM (inactive) | 3.47 µM (inactive) | – | 3.1 µM (inactive) | – | 23.2 µM (inactive) | – | 2.94 µM (inactive) | – | 33.1 µM (inactive) | > 100 µM (inactive) | 8.59 µM (inactive) | 7.64 µM (inactive) | 5.3 µM (inactive) | 5.01 µM (inactive) | 8.36 µM (inactive) | 3.1 µM (inactive) | – | – | –
COc1ccc(/C(C=O)=C(\Cl)c2ccc(OC)c(OC)c2)cc1 | 15.6 µM (inactive) | – | > 100 µM (inactive) | – | > 100 µM (inactive) | > 100 µM (inactive) | 3.89 µM (inactive) | – | – | > 100 µM (inactive) | > 100 µM (inactive) | > 100 µM (inactive) | 36.8 µM (inactive) | 32.1 µM (inactive) | > 100 µM (inactive) | 57.3 µM (inactive) | > 100 µM (inactive) | > 100 µM (inactive) | 23 µM (inactive) | > 100 µM (inactive)
Nc1ccc(OCC(O)N2C(=O)c3ccccc3C2=O)cc1 (stereo not given) | – | > 100 µM (inactive) | > 100 µM (inactive) | > 100 µM (inactive) | – | > 100 µM (inactive) | > 10 µM (inactive) | > 100 µM (inactive) | > 100 µM (inactive) | > 100 µM (inactive) | – | – | > 100 µM (inactive) | > 100 µM (inactive) | > 100 µM (inactive) | – | > 100 µM (inactive) | > 100 µM (inactive) | – | > 100 µM (inactive)
CSCC[C@@H]1C(=O)N(C)[C@H](C(C)(C)C)N1C(=O)c1ccccc1 | > 100 µM (inactive) | > 100 µM (inactive) | – | > 100 µM (inactive) | – | > 100 µM (inactive) | – | > 100 µM (inactive) | – | > 100 µM (inactive) | > 100 µM (inactive) | > 100 µM (inactive) | > 100 µM (inactive) | > 100 µM (inactive) | > 100 µM (inactive) | > 100 µM (inactive) | > 100 µM (inactive) | – | > 100 µM (inactive) | –
COC1/C=C\C=C(/C)C(=O)NC2=CC(=O)C=C(C2=O)C(OC)C(C)CC(OC)C(OC)C(C)/C=C(/C)C1OC(N)=O (stereo not given) | 1.59 µM (inactive) | 1.28 µM (inactive) | – | 0.084 µM (active) | – | 16.4 µM (inactive) | – | 5.73 µM (inactive) | – | 15.3 µM (inactive) | 0.29 µM (active) | 5.25 µM (inactive) | 2.92 µM (inactive) | 12.7 µM (inactive) | 0.76 µM (active) | 8.09 µM (inactive) | 4.35 µM (inactive) | – | 2.14 µM (inactive) | –
CC(C)CC1NC(=O)C(NC(=O)c2ncccc2O)C(C)OC(=O)C(c2ccccc2)N(C)C(=O)C(C)NC(=O)C(C(C)C(C)C)N(C)C(=O)CN(C)C(=O)C2CC(O)CN2C1=O (stereo not given) ({Picolinoyl(3-OH)}-TL[Hyp][Sar][X56]A[NMePhg]; ester 1-C; configuration not given here) | 82.4 µM (inactive) | 13.7 µM (inactive) | – | 80.2 µM (inactive) | – | > 85.5 µM (inactive) | – | > 125 µM (inactive) | – | > 125 µM (inactive) | 83.6 µM (inactive) | 65.8 µM (inactive) | > 125 µM (inactive) | 40.8 µM (inactive) | 45.1 µM (inactive) | 74.5 µM (inactive) | 24.3 µM (inactive) | – | > 125 µM (inactive) | –
CCCNC(=O)Nc1c([N+](=O)[O-])cc(C(F)(F)F)cc1[N+](=O)[O-] | – | – | > 100 µM (inactive) | > 10 µM (inactive) | 55.2 µM (inactive) | > 100 µM (inactive) | 92.9 µM (inactive) | – | – | > 100 µM (inactive) | – | – | > 100 µM (inactive) | > 100 µM (inactive) | 37.3 µM (inactive) | 71.3 µM (inactive) | 28.4 µM (inactive) | 86.3 µM (inactive) | 82.8 µM (inactive) | 89.9 µM (inactive)
